Data taken from patent publication US4731360A, “Acylcarnitines as absorption-enhancing agents for drug delivery through mucous membranes of the nasal, buccal, sublingual and vaginal compartments” (Merck & Co., Inc., priority 1985, dated 1988).
Each block holds one compound with its values, some of them ahead of it.

What was measured:
mucosal cells = settings: studies of surfactants; cited from earlier work
[1] = tested on: mucous membranes of the nasal, buccal, sublingual and vaginal compartments; assay: Promotion of drug absorption through mucous membranes; settings: without acyl ester
[2] = Percent bioavailability of α-methyldopa after nasal, oral (buccal) or vaginal administration to rats, with or without palmitoylcarnitine chloride; blood levels by HPLC, against intravenous administration; assay type: in vivo; settings: aqueous formulation, mean ± SD, n = 3, vs intravenous; for Percent α-methyldopa Bioavailability in the Presence (+) of Palmitoylcarnitine: with 1.0 mg palmitoylcarnitine chloride; for Percent α-methyldopa Bioavailability in the Absence (-) of Palmitoylcarnitine: without palmitoylcarnitine
Procedure: Effect of palmitoylcarnitine chloride on the nasal, buccal and vaginal absorption of α-methyldopa (amino acid, antihypertensive). Experiments were performed with rats wherein each animal received an aqueous formulation administered to the nasal, oral or vaginal cavities. The formulations contained the indicated amount of α-methyldopa in the presence or absence of 1.0 mg palmitoylcarnitine chloride. Procedures were tested to eliminate the possibility of cross-contamination between the nasal and oral cavities. Blood levels of α-methyldopa were determined by high performance liquid chromatography and the amount of drug absorbed (percent bioavailability) calculated against intravenous α-methyldopa administration. | Values represent the mean ± SD for n = 3 determinations.

[3] = nasal cavity, α-methyldopa 0.5 mg
[4] = oral cavity (buccal), α-methyldopa 2.5 mg
[5] = vaginal cavity, α-methyldopa 2.5 mg

SMILES: CCCCCCCCCCCCOS(=O)(=O)[O-].[Na+] [sodium lauryl sulfate]
- cellular damage associated with surfactant activity (mucosal cells): generally associated with some degree of cellular damage

SMILES: C[N+](C)(C)CC(O)CC(=O)[O-] (centres unmarked) [carnitine]
- absorption promoting effect of carnitine alone [1]: no effect

- Percent α-methyldopa Bioavailability in the Presence (+) of Palmitoylcarnitine [2, 3]: 52 ± 16.2%
- Percent α-methyldopa Bioavailability in the Absence (-) of Palmitoylcarnitine [2, 3]: 7 ± 1.1%
- Percent α-methyldopa Bioavailability in the Presence (+) of Palmitoylcarnitine [2, 4]: 10 ± 6.0%
- Percent α-methyldopa Bioavailability in the Absence (-) of Palmitoylcarnitine [2, 4]: 3 ± 0.7%
- Percent α-methyldopa Bioavailability in the Presence (+) of Palmitoylcarnitine [2, 5]: 100 ± 55.0%
- Percent α-methyldopa Bioavailability in the Absence (-) of Palmitoylcarnitine [2, 5]: 2 ± 1.0%
SMILES: C[C@](N)(Cc1ccc(O)c(O)c1)C(=O)O [α-methyldopa]
